Results reported in ChEMBL document CHEMBL1138261, “Probing binding requirements of type I and type II isoforms of inosine monophosphate dehydrogenase with adenine-modified nicotinamide adenine dinucleotide analogues” (J Med Chem, 2007).
One block for each compound: values may come before it.

Legend:
[1] = biological target: Inosine-5'-monophosphate dehydrogenase 1 (Homo sapiens, UniProt P20839); experiment: Inhibition of human IMPDH type 1
[2] = biological target: Inosine-5'-monophosphate dehydrogenase 2 (Homo sapiens, UniProt P12268); experiment: Inhibition of human IMPDH type 2
[3] = Inhibition of horse liver alcohol dehydrogenase; design: species or system Equus caballus
[4] = biological target: Malate dehydrogenase (Sus scrofa); experiment: Inhibition of porcine heart malate dehydrogenase
[5] = biological target: L-lactate dehydrogenase (Bos taurus); experiment: Inhibition of bovine heart lactate dehydrogenase
K562 = experiment: Antiproliferative activity against human K562 cells after 72 hrs; assay type: functional, cell-based; details: K562, 72 h

Inosine-5'-monophosphate dehydrogenase 1, sequence (P20839 whole entry): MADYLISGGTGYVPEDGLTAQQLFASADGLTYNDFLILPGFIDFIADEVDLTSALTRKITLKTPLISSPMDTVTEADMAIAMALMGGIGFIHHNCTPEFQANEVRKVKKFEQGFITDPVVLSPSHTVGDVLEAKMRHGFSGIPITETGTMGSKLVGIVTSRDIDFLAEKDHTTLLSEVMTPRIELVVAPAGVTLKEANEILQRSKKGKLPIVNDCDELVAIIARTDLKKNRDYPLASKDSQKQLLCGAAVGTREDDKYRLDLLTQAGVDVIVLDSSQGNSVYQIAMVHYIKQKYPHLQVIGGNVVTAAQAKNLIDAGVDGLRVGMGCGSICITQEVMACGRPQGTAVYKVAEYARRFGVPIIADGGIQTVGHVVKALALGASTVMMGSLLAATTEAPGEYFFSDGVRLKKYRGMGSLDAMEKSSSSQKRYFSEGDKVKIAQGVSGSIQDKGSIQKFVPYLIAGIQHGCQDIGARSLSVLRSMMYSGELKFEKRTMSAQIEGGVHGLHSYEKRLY

Compound: COc1c(C)c2c(c(O)c1CCOP(=O)(O)CP(=O)(O)OC[C@H]1O[C@@H](n3cnc4c(N)nc(-c5ccccc5)nc43)[C@H](O)[C@@H]1O)C(=O)OC2
Ki [1]: 66 nM
Ki [2]: 108 nM
IC50 [3]: > 50000 nM
IC50 (K562): 1100 nM
IC50 [4]: 14300 nM
IC50 [5]: > 50000 nM

Compound: NC(=O)c1csc([C@@H]2O[C@H](COP(=O)(O)OP(=O)(O)OC[C@H]3O[C@@H](n4cnc5c(N)nc(NCCc6ccccc6)nc54)[C@H](O)[C@@H]3O)[C@@H](O)[C@H]2O)n1
Ki [1]: 73 nM
Ki [2]: 255 nM
IC50 [4]: 12700 nM
IC50 [5]: > 50000 nM

Compound: C=Cc1nc(N)c2ncn([C@@H]3O[C@H](COP(=O)(O)OP(=O)(O)OC[C@H]4O[C@@H](c5nc(C(N)=O)cs5)[C@H](O)[C@@H]4O)[C@@H](O)[C@H]3O)c2n1
Ki [1]: 96 nM
Ki [2]: 94 nM
IC50 [3]: 39000 nM
IC50 [4]: > 50000 nM
IC50 [5]: > 50000 nM

Compound: NC(=O)c1csc([C@@H]2O[C@H](COP(=O)(O)OP(=O)(O)OC[C@H]3O[C@@H](n4cnc5c(N)nc(Nc6ccccc6)nc54)[C@H](O)[C@@H]3O)[C@@H](O)[C@H]2O)n1
Ki [1]: 45 nM
Ki [2]: 153 nM
IC50 [3]: > 50000 nM
IC50 [4]: > 50000 nM
IC50 [5]: > 50000 nM

Compound: COc1c(C)c2c(c(O)c1C/C=C(\C)CCC(=O)O)C(=O)OC2 [MYCOPHENOLIC ACID]
IC50 (K562): 7700 nM

Compound: NC(=O)c1csc([C@@H]2O[C@H](COP(=O)(O)OP(=O)(O)OC[C@H]3O[C@@H](n4cnc5c(N)ncnc54)[C@H](O)[C@@H]3O)[C@@H](O)[C@H]2O)n1 [TIAZOFURIN ADENINE DINUCLEOTIDE]
IC50 (K562): 12400 nM

More lines, now with the values ahead:

Ki [1]: 10 nM
Ki [2]: 49 nM
IC50 [3]: > 50000 nM
IC50 [4]: > 50000 nM
IC50 [5]: > 50000 nM
Compound: C#Cc1nc(N)c2ncn([C@@H]3O[C@H](COP(=O)(O)OP(=O)(O)OC[C@H]4O[C@@H](c5nc(C(N)=O)cs5)[C@H](O)[C@@H]4O)[C@@H](O)[C@H]3O)c2n1

Ki [1]: 20 nM
Ki [2]: 143 nM
IC50 [4]: > 50000 nM
IC50 [5]: > 50000 nM
Compound: NC(=O)c1csc([C@@H]2O[C@H](COP(=O)(O)OP(=O)(O)OC[C@H]3O[C@@H](n4cnc5c(N)nc(-c6ccccc6)nc54)[C@H](O)[C@@H]3O)[C@@H](O)[C@H]2O)n1

Ki [1]: 45 nM
Ki [2]: 169 nM
IC50 [4]: 30000 nM
IC50 [5]: > 50000 nM
Compound: NC(=O)c1csc([C@@H]2O[C@H](COP(=O)(O)OP(=O)(O)OC[C@H]3O[C@@H](n4cnc5c(N)nc(NCc6ccccc6)nc54)[C@H](O)[C@@H]3O)[C@@H](O)[C@H]2O)n1

Ki [1]: 1 nM
IC50 [3]: > 50000 nM
IC50 [4]: > 50000 nM
IC50 [5]: > 50000 nM
Compound: CCc1nc(N)c2ncn([C@@H]3O[C@H](COP(=O)(O)OP(=O)(O)OC[C@H]4O[C@@H](c5nc(C(N)=O)cs5)[C@H](O)[C@@H]4O)[C@@H](O)[C@H]3O)c2n1

Ki [1]: 19 nM
Ki [2]: 84 nM
IC50 [4]: > 50000 nM
IC50 [5]: > 50000 nM
Compound: NC(=O)c1csc([C@@H]2O[C@H](COP(=O)(O)OP(=O)(O)OC[C@H]3O[C@@H](n4cnc5c(N)nc(I)nc54)[C@H](O)[C@@H]3O)[C@@H](O)[C@H]2O)n1

Ki [1]: 7 nM
IC50 [3]: > 50000 nM
IC50 [4]: > 50000 nM
IC50 [5]: > 50000 nM
Compound: NC(=O)c1csc([C@@H]2O[C@H](COP(=O)(O)OP(=O)(O)OC[C@H]3O[C@@H](n4cnc5c(N)nc(N)nc54)[C@H](O)[C@@H]3O)[C@@H](O)[C@H]2O)n1
